Source: ChEMBL document CHEMBL6087433, “Discovery of ART0380, a Potent and Selective ATR Kinase Inhibitor Undergoing Phase 2 Clinical Studies for the Treatment of Advanced or Metastatic Solid Cancers” (J Med Chem, 2024)

system: not listed separately; assay: in vitro; settings: human, human liver microsomes

SMILES	CLint scaled at 0.75 h, 1 µM
COc1cc(-c2nc(N=[S@](C)(=O)C3COC3)cc(N3CCOC[C@H]3C)n2)cc(N)n1	2.4 mL/min/kg
COc1cc(-c2nc(N=[S@@](C)(=O)C3CC3)cc(N3CCOC[C@H]3C)n2)cc(N)n1	7.1 mL/min/kg
COc1cc(-c2nc(N=[S@@](C)(=O)C3COC3)cc(N3CCOC[C@H]3C)n2)cc(N)n1	13 mL/min/kg

molecular target: CYP3A4 (Homo sapiens, UniProt P08684); assay: in vitro; settings: human liver microsomes, probe midazolam
Sequence (P08684 whole entry): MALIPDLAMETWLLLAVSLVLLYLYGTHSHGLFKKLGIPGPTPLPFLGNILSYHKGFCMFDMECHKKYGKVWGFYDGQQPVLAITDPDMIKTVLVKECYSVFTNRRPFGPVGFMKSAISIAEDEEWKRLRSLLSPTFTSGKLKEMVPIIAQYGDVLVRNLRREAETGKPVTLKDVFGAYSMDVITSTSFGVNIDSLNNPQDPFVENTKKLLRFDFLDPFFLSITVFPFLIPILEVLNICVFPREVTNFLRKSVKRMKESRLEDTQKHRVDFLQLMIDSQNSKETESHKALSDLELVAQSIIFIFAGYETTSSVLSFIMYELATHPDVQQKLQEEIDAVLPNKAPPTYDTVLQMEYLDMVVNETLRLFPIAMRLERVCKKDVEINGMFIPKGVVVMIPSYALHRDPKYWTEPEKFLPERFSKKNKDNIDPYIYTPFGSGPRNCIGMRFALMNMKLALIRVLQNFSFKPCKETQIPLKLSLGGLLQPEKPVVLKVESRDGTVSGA

SMILES	inhibition at 10 µM
Cc1cc2c(-c3nc(N=S(C)(C)=O)cc(N4CCOC[C@H]4C)n3)ccnc2[nH]1	56%

molecular target: T1, Serine/threonine-protein kinase mTOR (Homo sapiens, UniProt P42345); assay: not given; settings: not given

SMILES	IC50
C[C@@H]1COCCN1c1cc(N=S(C)(=O)C2CCOCC2)nc(-c2ccnc3[nH]ccc23)n1 (mixture of isomers)	6360 nM
C[C@@H]1COCCN1c1cc(-c2ccnc3[nH]ccc23)nc(N=S(C)(C)=O)n1	> 10000 nM
COc1cc(-c2nc(N=[S@](C)(=O)C3COC3)cc(N3CCOC[C@H]3C)n2)cc(N)n1	8240 nM
C[C@@H]1COCCN1c1cc(N=[S@@](C)(=O)C2CC2)nc(-c2ccnc3[nH]ccc23)c1	8200 nM
C[C@@H]1COCCN1c1cc(N=[S@](C)(=O)C2CC2)nc(-c2ccnc3[nH]ccc23)c1	9650 nM
CC[S@@](C)(=O)=Nc1cc(N2CCOC[C@H]2C)nc(-c2ccnc3[nH]ccc23)n1	1710 nM
CC[S@](C)(=O)=Nc1cc(N2CCOC[C@H]2C)nc(-c2ccnc3[nH]ccc23)n1	2160 nM
C[C@@H]1COCCN1c1cc(N=S(C)(C)=O)nc(-c2ccnc(N)c2)c1	> 10000 nM
COc1cc(-c2nc(N=[S@@](C)(=O)C3CC3)cc(N3CCOC[C@H]3C)n2)cc(N)n1	7000 nM
C[C@@H]1COCCN1c1cc(N=[S@@](C)(=O)C2CC2)nc(-c2ccnc3[nH]ccc23)n1	1660 nM
C[C@@H]1COCCN1c1cc(N=S(C)(=O)C2COC2)nc(-c2ccnc3[nH]ccc23)n1 (mixture of isomers)	2190 nM
C[C@@H]1COCCN1c1cc(C2CCCN(S(C)(=O)=O)C2)nc(-c2ccnc3[nH]ccc23)n1 (mixture of isomers)	1300 nM
C[C@@H]1COCCN1c1cc(N=S(C)(C)=O)nc(-c2ccnc3[nH]ccc23)c1	8500 nM
C[C@@H]1COCCN1c1cc(N=S(C)(C)=O)nc(-c2ccnc(N)c2)n1	15400 nM
COc1cc(-c2nc(N=[S@@](C)(=O)C3COC3)cc(N3CCOC[C@H]3C)n2)cc(N)n1	5250 nM
COc1cc(-c2nc(N=S(C)(C)=O)cc(N3CCOC[C@H]3C)n2)cc(N)n1	8260 nM
Cc1cc2c(-c3nc(N=S(C)(C)=O)cc(N4CCOC[C@H]4C)n3)ccnc2[nH]1	3340 nM
Cc1cc(-c2nc(N=S(C)(C)=O)cc(N3CCOC[C@H]3C)n2)cc(N)n1	> 10000 nM
C[C@@H]1COCCN1c1cc(N=S(C)(C)=O)nc(-c2ccnc3[nH]ccc23)n1	2400 nM
C[C@@H]1COCCN1c1cc(C2CCN(S(C)(=O)=O)CC2)nc(-c2ccnc3[nH]ccc23)n1	496 nM
C[C@@H]1COCCN1c1cc(N2CCCN(C)S2(=O)=O)nc(-c2ccnc3[nH]ccc23)n1	420 nM
C[C@@H]1COCCN1c1cc(N=[S@](C)(=O)C2CC2)nc(-c2ccnc3[nH]ccc23)n1	2380 nM
C[C@@H]1COCCN1c1cc(C2CCCS2(=O)=O)nc(-c2ccnc3[nH]ccc23)n1 (mixture of isomers)	3900 nM

molecular target: Serine/threonine-protein kinase ATR (Homo sapiens, UniProt Q13535); assay: not given; settings: not given
Sequence (Q13535 whole entry): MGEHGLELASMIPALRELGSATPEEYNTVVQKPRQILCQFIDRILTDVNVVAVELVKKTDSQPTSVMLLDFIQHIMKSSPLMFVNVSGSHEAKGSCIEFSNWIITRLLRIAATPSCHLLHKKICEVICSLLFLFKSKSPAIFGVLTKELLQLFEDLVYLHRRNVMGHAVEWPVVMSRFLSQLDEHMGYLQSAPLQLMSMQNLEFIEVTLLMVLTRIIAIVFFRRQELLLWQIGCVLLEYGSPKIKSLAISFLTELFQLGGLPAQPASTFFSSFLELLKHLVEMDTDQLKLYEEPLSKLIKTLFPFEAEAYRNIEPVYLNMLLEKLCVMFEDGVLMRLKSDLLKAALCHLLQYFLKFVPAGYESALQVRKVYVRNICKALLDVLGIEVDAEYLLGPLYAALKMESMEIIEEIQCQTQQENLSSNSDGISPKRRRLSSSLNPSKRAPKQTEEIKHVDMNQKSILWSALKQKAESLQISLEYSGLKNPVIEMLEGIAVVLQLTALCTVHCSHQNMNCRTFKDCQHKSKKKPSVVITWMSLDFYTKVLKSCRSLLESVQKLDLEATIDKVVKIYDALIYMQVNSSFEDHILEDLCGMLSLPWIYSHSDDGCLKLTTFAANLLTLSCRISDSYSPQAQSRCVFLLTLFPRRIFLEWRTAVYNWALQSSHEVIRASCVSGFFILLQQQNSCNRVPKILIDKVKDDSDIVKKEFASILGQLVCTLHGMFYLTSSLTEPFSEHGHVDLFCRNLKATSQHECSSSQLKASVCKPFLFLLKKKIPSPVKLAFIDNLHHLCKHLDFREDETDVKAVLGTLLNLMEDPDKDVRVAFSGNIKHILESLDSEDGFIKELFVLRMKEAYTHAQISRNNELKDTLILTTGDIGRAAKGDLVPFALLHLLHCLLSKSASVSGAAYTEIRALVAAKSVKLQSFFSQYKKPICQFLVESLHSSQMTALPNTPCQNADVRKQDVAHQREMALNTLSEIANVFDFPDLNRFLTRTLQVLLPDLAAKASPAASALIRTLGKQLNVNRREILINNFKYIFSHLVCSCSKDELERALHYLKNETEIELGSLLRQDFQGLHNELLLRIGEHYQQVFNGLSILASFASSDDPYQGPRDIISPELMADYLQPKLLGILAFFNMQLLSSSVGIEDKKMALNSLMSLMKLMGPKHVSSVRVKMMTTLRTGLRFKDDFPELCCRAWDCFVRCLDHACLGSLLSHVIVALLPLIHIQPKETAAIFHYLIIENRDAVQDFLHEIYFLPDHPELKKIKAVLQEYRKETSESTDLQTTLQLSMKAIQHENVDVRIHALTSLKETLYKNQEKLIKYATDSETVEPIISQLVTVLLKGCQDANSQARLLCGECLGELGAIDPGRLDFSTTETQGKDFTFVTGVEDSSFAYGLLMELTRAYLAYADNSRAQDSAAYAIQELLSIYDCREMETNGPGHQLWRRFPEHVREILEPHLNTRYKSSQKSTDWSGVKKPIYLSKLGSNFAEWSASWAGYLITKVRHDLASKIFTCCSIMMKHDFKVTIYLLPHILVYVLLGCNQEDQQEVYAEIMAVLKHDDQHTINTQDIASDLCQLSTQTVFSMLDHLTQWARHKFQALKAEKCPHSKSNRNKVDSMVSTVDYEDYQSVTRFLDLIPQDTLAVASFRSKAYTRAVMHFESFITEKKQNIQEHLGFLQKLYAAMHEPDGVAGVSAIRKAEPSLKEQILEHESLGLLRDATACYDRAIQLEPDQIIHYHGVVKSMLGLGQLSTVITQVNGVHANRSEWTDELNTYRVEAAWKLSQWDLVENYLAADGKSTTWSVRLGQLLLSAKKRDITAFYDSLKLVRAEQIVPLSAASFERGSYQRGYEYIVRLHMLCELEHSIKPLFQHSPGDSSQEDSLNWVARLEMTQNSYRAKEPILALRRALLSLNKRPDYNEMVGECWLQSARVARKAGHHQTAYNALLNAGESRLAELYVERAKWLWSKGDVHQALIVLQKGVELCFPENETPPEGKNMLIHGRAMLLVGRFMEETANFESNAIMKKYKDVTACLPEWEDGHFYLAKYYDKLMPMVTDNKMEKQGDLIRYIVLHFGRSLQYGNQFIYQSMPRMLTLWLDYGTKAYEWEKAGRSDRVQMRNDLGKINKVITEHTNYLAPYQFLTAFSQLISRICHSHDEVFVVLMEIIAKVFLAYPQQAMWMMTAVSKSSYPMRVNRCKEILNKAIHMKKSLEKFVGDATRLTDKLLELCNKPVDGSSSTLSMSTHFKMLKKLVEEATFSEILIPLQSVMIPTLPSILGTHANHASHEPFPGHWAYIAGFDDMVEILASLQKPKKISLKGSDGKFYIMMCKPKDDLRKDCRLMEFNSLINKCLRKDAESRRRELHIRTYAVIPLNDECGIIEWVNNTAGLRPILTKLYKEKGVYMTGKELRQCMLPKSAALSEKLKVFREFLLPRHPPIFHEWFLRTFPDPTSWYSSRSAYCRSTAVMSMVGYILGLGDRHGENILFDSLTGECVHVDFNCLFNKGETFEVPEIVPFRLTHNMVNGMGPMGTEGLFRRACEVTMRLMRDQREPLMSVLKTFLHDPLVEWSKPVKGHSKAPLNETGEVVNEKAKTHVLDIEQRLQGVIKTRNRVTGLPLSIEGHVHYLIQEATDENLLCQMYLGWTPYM

SMILES	IC50
C[C@@H]1COCCN1c1cc(N=S(C)(C)=O)nc(-c2ccnc(N)c2)c1	875 nM
C[C@@H]1COCCN1c1cc(C2CCCN(S(C)(=O)=O)C2)nc(-c2ccnc3[nH]ccc23)n1 (mixture of isomers)	134 nM

molecular target: T1, Serine/threonine-protein kinase mTOR; assay: not given; settings: not given; remark: another data set of the same source

SMILES	IC50
COc1cc(-c2nc(N=[S@](C)(=O)C3COC3)cc(N3CCOC[C@H]3C)n2)cc(N)n1	2980 nM
C[C@@H]1COCCN1c1cc(N=[S@@](C)(=O)C2CC2)nc(-c2ccnc3[nH]ccc23)c1	1190 nM
C[C@@H]1COCCN1c1cc(N=[S@](C)(=O)C2CC2)nc(-c2ccnc3[nH]ccc23)c1	2770 nM
CC[S@@](C)(=O)=Nc1cc(N2CCOC[C@H]2C)nc(-c2ccnc3[nH]ccc23)n1	1120 nM
CC[S@](C)(=O)=Nc1cc(N2CCOC[C@H]2C)nc(-c2ccnc3[nH]ccc23)n1	891 nM
COc1cc(-c2nc(N=[S@@](C)(=O)C3CC3)cc(N3CCOC[C@H]3C)n2)cc(N)n1	866 nM
C[C@@H]1COCCN1c1cc(N=[S@@](C)(=O)C2CC2)nc(-c2ccnc3[nH]ccc23)n1	165 nM
C[C@@H]1COCCN1c1cc(N=S(C)(=O)C2COC2)nc(-c2ccnc3[nH]ccc23)n1 (mixture of isomers)	307 nM
C[C@@H]1COCCN1c1cc(C2CCCN(S(C)(=O)=O)C2)nc(-c2ccnc3[nH]ccc23)n1 (mixture of isomers)	113 nM
C[C@@H]1COCCN1c1cc(N=S(C)(C)=O)nc(-c2ccnc3[nH]ccc23)c1	1600 nM
C[C@@H]1COCCN1c1cc(N=S(C)(C)=O)nc(-c2ccnc(N)c2)n1	4780 nM
COc1cc(-c2nc(N=[S@@](C)(=O)C3COC3)cc(N3CCOC[C@H]3C)n2)cc(N)n1	421 nM
COc1cc(-c2nc(N=S(C)(C)=O)cc(N3CCOC[C@H]3C)n2)cc(N)n1	2210 nM
Cc1cc2c(-c3nc(N=S(C)(C)=O)cc(N4CCOC[C@H]4C)n3)ccnc2[nH]1	502 nM
C[C@@H]1COCCN1c1cc(N=S(C)(C)=O)nc(-c2ccnc3[nH]ccc23)n1	419 nM
C[C@@H]1COCCN1c1cc(C2CCN(S(C)(=O)=O)CC2)nc(-c2ccnc3[nH]ccc23)n1	217 nM
C[C@@H]1COCCN1c1cc(N2CCCN(C)S2(=O)=O)nc(-c2ccnc3[nH]ccc23)n1	81 nM
C[C@@H]1COCCN1c1cc(N=[S@](C)(=O)C2CC2)nc(-c2ccnc3[nH]ccc23)n1	324 nM
C[C@@H]1COCCN1c1cc(C2CCCS2(=O)=O)nc(-c2ccnc3[nH]ccc23)n1 (mixture of isomers)	274 nM
